Assay results taken from PubChem BioAssay (NCI).
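The compound was tested at five concentrations on cells cultured in 96-well plates, with a 48-hour exposure period. Definition used: TGI = concentration required for complete inhibition of growth.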

Legend:
Experiment in all cases: NCI tumour cell line growth inhibition, 48 h
HOP-18 NSCLC = system: HOP-18 NSCLC
SNB-78 CNS = system: SNB-78 CNS
LXFL 529 NSCLC = system: LXFL 529 NSCLC
DLD-1 colon = system: DLD-1 colon
DMS 114 small cell lung = system: DMS 114 small cell lung
KM20L2 colon = system: KM20L2 colon
M19-MEL melanoma = system: M19-MEL melanoma
DMS 273 small cell lung = system: DMS 273 small cell lung
XF 498 CNS = system: XF 498 CNS
SN12K1 renal = system: SN12K1 renal
P388/ADR leukemia = system: P388/ADR leukemia
P388 leukemia = system: P388 leukemia
RXF-631 renal = system: RXF-631 renal

Row | SMILES | TGI (HOP-18 NSCLC) [µM] | TGI (SNB-78 CNS) [µM] | TGI (LXFL 529 NSCLC) [µM] | TGI (DLD-1 colon) [µM] | TGI (DMS 114 small cell lung) [µM] | TGI (KM20L2 colon) [µM] | TGI (M19-MEL melanoma) [µM] | TGI (DMS 273 small cell lung) [µM] | TGI (XF 498 CNS) [µM] | TGI (SN12K1 renal) [µM] | TGI (P388/ADR leukemia) [µM] | TGI (P388 leukemia) [µM] | TGI (RXF-631 renal) [µM]
1 | CCN(CC)CCNc1ccc2nnn3c4ccc(O)cc4c(=O)c1c23 | 42.7 | 21.1 | 20.3 | 17.5 | 22.1 | 17.6 |  |  |  |  |  |  | 
2 | COc1cccc(NC(=O)C(=O)C(C(=O)c2ccccc2F)C2OC(=O)c3ccccc32)c1 (centres undefined) |  | > 100 | > 100 | > 100 |  | > 100 | > 100 | > 100 |  |  |  |  | 
3 | CCCCCC/C=C1\CCC(CN2CCOCC2)C1=O (centres undefined) | 20 | 50.6 | 11.1 | 27.4 | 33.2 | 37 |  | 32.5 | 29.9 |  |  |  | 
4 | COC1(O)c2cccc(Cl)c2C(=O)N1C1(C(N)=O)CCCCC1 (centres undefined) | > 100 | > 100 |  | > 100 | > 100 | > 100 | > 100 | > 100 | > 100 | > 100 | > 100 | > 100 | 
5 | O=C(O)C12CCCCC1CCCC2 (centres undefined) | > 100 |  | > 100 | > 100 | > 100 | > 100 | > 100 | > 100 | > 100 |  |  |  | 
6 | O=C1C(Cl)N(c2cccc([N+](=O)[O-])c2)C1c1c[nH]c2ccccc12 (centres undefined) |  |  | 20.4 |  | 47 | 53.6 | 42.5 |  |  |  |  |  | 
7 | CC(=O)NC(Cc1ccsc1)C(=O)O (centres undefined) | > 100 | > 100 |  | > 100 | > 100 | > 100 | > 100 | > 100 | > 100 | > 100 | > 100 | > 100 | 
8 | CC(C)(C)C1=CC(=C2C(=O)C(=O)c3ccccc3C2=O)C=C(C(C)(C)C)C1=O | > 100 | > 100 | > 100 | > 100 | 66.2 | > 100 | > 100 | > 100 |  |  |  |  | 
9 | Cc1c2ccncc2c(C)c2c1[nH]c1ccc(OCC(F)(F)F)cc12 |  | 5.47 | 2.43 | 3.32 |  | 2.78 | 3.49 | 2.17 | 3.07 |  |  |  | 
10 | COc1cc(C2C(Cl)C(=O)N2NC(=O)c2ccc(N)cc2)cc(Br)c1O (centres undefined) |  | 43.9 | 11.3 | 40.2 | 21.8 | 33.6 | 32 | 31.9 | 30.7 |  |  |  | 
11 | COC(=O)C(C/C=C(\C)c1ccc(Cl)cc1)C(C)=O (centres undefined) | > 100 | > 100 |  | > 100 | > 73.8 | > 100 | > 92.5 | > 72 | > 100 | > 61.7 | > 76.5 | 46 | 
12 | O=Cc1ccc(CCl)cc1 | 37.4 | 47.7 | 31.4 | 31.4 | 23.5 | 61.8 | 52.5 | 38.8 | 34.6 |  |  |  | 14.7
13 | CSc1nc2c(ncn2C2OCC(O)C(O)C2O)c(=O)n1C (centres undefined) | > 100 | > 100 |  | > 100 | > 100 | > 100 | > 100 | > 100 | > 100 | > 100 | > 100 | > 100 | 
